Positions count from the first letter of the chain named.
T1: PTP1B-OX (Homo sapiens, UniProt P18031)
T1 construct: Purified PTP1B (1–321) (100 nM) was mixed with increasing concentrations of H2O2; 6xHis (C); made in house; host or cells: E. coli BL21 (DE3)-RIL
T1 sequence (P18031 1-321): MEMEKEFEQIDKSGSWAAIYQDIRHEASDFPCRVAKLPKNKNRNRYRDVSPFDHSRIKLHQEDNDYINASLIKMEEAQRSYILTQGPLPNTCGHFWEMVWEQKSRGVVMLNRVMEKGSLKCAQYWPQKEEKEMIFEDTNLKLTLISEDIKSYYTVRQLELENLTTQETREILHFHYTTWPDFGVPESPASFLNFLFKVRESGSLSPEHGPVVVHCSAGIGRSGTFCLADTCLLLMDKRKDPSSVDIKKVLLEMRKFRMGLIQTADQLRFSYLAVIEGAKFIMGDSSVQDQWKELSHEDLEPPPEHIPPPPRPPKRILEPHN

T2: K36A/K41A PTP1B-OX mutant (Homo sapiens, UniProt P18031, K36A/K41A)
T2 construct: PTP1B (1–321) and TCPTP (1–317) cloned in pET21b vector were used as templates; 6xHis (C); made in house; host or cells: E. coli BL21 (DE3)-RIL
T2 sequence (P18031 1-321 K36A/K41A): T1 sequence (P18031 1-321) with K36A, K41A

T3: PTP1B-CASA-mut2 (Homo sapiens, UniProt P18031, C215A/K39E/K41R/L37F/S216A)
T3 construct: PTP1B (1–321) and TCPTP (1–317) cloned in pET21b vector were used as templates; made in house; host or cells: E. coli BL21 (DE3)-RIL
T3 sequence (P18031 1-321 L37F/K39E/K41R/C215A/S216A limits assumed): T1 sequence (P18031 1-321) with L37F, K39E, K41R, C215A, S216A

B1: scFv45: recombinant conformation-sensor single-chain variable fragment antibody recognizing oxidized PTP1B (antibody, V domains shown)
VH: TVTLDESGGGLQAPGGALSLVCKASGFTFSSYDMGWIRQAPGKGLEYVAGITDNGRYASYGSAVDGRATISRDNGQSSVRLQLNNLRAEDTGTYYCARDDGSGWTGNSIDAWGHGTEVIVSE
VL: ALTQPSSVSANPGGTVKITCSGSSSAYGYGWYQQKSPGSAPVTVIYNNNKRPSNIPSRFSGSKSGSTGTLTITGVQAEDEAVYFCGSEDSSTDAIFGAGTTLTVL

What was measured:
PKC = conditions: called into question by refs 39, 40; cited from earlier work
PTP1B-OX = molecular target: T1, PTP1B-OX; assay: displacement assay of scFv antibodies from PTP1B-OX; type: binding; conditions: chelerythrine 0–20 μM
Description: To test whether there was overlap in the binding site for chelerythrine and scFv antibodies that stabilized PTP1B-OX, we performed an in vitro competition binding assay using purified components. […] We focused on scFv106 and scFv67. Purified PTP1B (50 nM) was reversibly oxidized with 250 µM H2O2 followed by a buffer exchange to remove excess H2O2. Increasing concentration of purified scFv antibody (0–10 µM) was incubated with oxidized proteins in binding buffer (20 mM HEPES pH 7.4, 300 mM NaCl, 0.05% BSA, 0.05% Tween-20) for 2 h at 4 °C. Anti-HA agarose (Roche, 50% slurry equilibrated in the binding buffer) was added and incubated for 1 h at 4 °C. Protein complexes bound to anti-HA beads were precipitated and washed three times; first with lysis buffer followed by two more washes with wash buffer (25 mM HEPES pH 7.4, 100 mM NaCl, 0.05% BSA, 0.05% Tween-20, and protease inhibitors). The protein complex was incubated with varying concentrations of chelerythrine (0–20 µM) for 2 h at 4 °C, following which the beads were washed as described above. The complexes were resolved by SDS-PAGE and analyzed by immunoblotting.

[1] = molecular target: T2, K36A/K41A PTP1B-OX mutant; assay: reduction and reactivation of oxidized PTP1B-K36A/K41A, DiFMUP, TCEP; type: biochemical
Description: Fig. 5 Chelerythrine and scFv45 inhibit reactivation of PTP1B-OX by a similar mechanism. a Molecular modeling of chelerythrine binding to PTP1B-OX, with critical residues for the interaction highlighted on the right. b Oxidized PTP1B-wt (circle), PTP1B-K36A/K41A (square) were incubated with increasing concentrations of chelerythrine (0–10 mM) and phosphatase activity was measured using DiFMUP as substrate in the presence of the reducing agent TCEP (5 mM). c Oxidized PTP1B-wt (circle), PTP1B-mut1 (square), or PTP1B-mut2 (diamond) were incubated with increasing concentrations of chelerythrine (0–10 mM) and phosphatase activity was measured using DiFMUP as substrate in the presence of the reducing agent TCEP (5 mM). Individual data points represent the mean obtained from three separate experiments (n = 3; b, c). d Overlay of crystal structures of the reduced (blue) and oxidized (gray) form of PTP1B.

PTP1B-CASA-mut2 = molecular target: T3, PTP1B-CASA-mut2; assay: analytical size-exclusion chromatography; type: binding; conditions: excess or limiting molar ratios
Description: Recombinant PTP1B-CASA, PTP1B-CASA-mut2, and scFv45 were purified as described. Proteins were exchanged into freshly prepared 50 mM ammonium bicarbonate pH 8 (Fig. 2a; Supplementary Fig. 1) using 0.5 mL Zeba spin desalting columns 7K MWCO (Thermo Fisher Scientific) as per manufacturers protocol. Designated protein constructs or buffer equivalents were mixed at 1.1 or 1.4 molar excess (excess reciprocated for both PTP1B and scFv45) and incubated on ice 20 min prior to injection (20 µL injection loop; 4–10 µg total protein), separation, and detection on a Dionex Ultimate 3000 HPLC connected to an XBridge Protein BEH SEC 200 Å, 3.5 µm, 7.8 mm × 300 mm column (Waters) flowing 200 mM ammonium acetate pH 7.0 isocratically at 0.86 mL min^−1 and 25 °C, monitoring absorbance at λ 280 nm (Fig. 2a; Supplementary Fig. 1). Injections were performed intermittently with BEH200Å SEC Protein Standard Mix (amount corrected for 20 µL injection loop; Waters Corp.) to monitor peak resolution and retention time consistency among runs.

reduced form of PTP1B = system: reduced form of PTP1B; parameters: method as in PMID 21962515; conditions: cited from earlier work

Molecule	inhibition of PKC (PKC)	competition with scFv106 for binding to PTP1B-OX (PTP1B-OX)	IC50 ([1]; TCEP 5 mM, DiFMUP, read-out: IC50 against K36A/K41A PTP1B-OX mutant)	inhibition of PTP1B-OX relative to K36AK41A PTP1B-OX ([1]; reviewer's summary in peer review file)	association with PTP1B-CASA-mut2 (PTP1B-CASA-mut2)	binding to the reduced form of PTP1B (reduced form of PTP1B)
COc1ccc2c(c[n+](C)c3c4cc5c(cc4ccc23)OCO5)c1OC [chelerythrine]	inhibitor of PKC	competed	75 µM	15 fold		
B1					unable to associate	did not bind
